# Data taken from PubChem BioAssay AID1159557 (GlaxoSmithKline (GSK), 2015).
# Active and inactive are the calls of the source. The rule behind the calls is not given here.
# Test system: Trypanosoma brucei growth inhibition
# Test: T. brucei growth inhibition (AID 1159557);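 note: parasites exposed to compound for 48 h before the resazurin readout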
row,IC50,Compound
1,3200 nM,Cc1ccc(-c2csc(NC(=O)C=Cc3ccc(S(=O)(=O)N4CCOCC4)cc3)n2)o1
2,25000 nM,O=C(NCCc1cccnc1)c1csc(-c2ccccc2)n1
3,63 nM,CNS(=O)(=O)c1ccccc1Nc1nc(Nc2ccnn2C)ncc1Cl
4,20000 nM,COc1ccc2nc(N(Cc3cccnc3)C(=O)C3CCC3)sc2c1
5,25000 nM,COc1cc(C(C)C)c(S(C)(=O)=O)cc1C(=O)N1CCN(c2ccccc2Cl)CC1
6,250 nM,O=C(Nc1nc(-c2ccc(F)cc2)cs1)c1ccc([N+](=O)[O-])s1
7,160 nM,O=C(N[C@H](CO)c1ccccc1)c1ccc(-c2c[nH]c3nccc(C(F)(F)F)c23)s1
8,13000 nM,CC(C)Oc1ccc(C(=O)Nc2ccc(N3CCOCC3)c(Cl)c2)cc1
9,500 nM,O=C1NCCn2ccc(Nc3nc(NC4CCC(O)CC4)ncc3Cl)c21 (stereo not drawn)
10,500 nM,CCOc1ccc(OCC(=O)N2c3ccccc3CC2C(=O)NC)cc1 (stereo not drawn)
11,160 nM,Cc1ccc(S(=O)(=O)Nc2ccc(CN3CCN(C(=O)c4cccc(C#N)c4)CC3)cc2)cc1
12,6300 nM,CCC(=O)Nc1ccc(-c2nc3ccc(Cl)cc3[nH]2)cc1
13,630 nM,CCCCn1c(=O)c2c(N)onc2n(CCCC)c1=O
14,> 40000 nM (inactive),Clc1ccc(C(CC2CCCCO2)Cn2cncn2)c(Cl)c1 (stereo not drawn)
15,200 nM,CN(C(=O)Nc1ccc2c(c1)CCN(C1CCC1)CC2)c1ccc(C#N)cc1
16,400 nM,Cn1nc(-c2ccc(NC(=O)Cc3ccccc3Cl)cc2)c2c(N)ncnc21
17,320 nM,O=C(NNC(=O)c1ccccn1)c1ccc(-c2ccccc2)cc1
18,13000 nM,O=C(CN1CCC2(O)CCCCC2C1c1ccc2c(c1)OCO2)Nc1ccc(Cl)cc1Cl (stereo not drawn)
19,630 nM,CC(C)(C)C(=O)NCCc1csc(-c2ccc(F)cc2)n1
20,1600 nM,O=C(Nc1ccc(Br)cn1)c1ccc(Cn2cnc([N+](=O)[O-])n2)cc1
21,20000 nM,CC(=O)Nc1ccc(-c2noc(CC3CCCN(Cc4cccc(F)c4C)C3)n2)cc1 (stereo not drawn)
22,32000 nM,O=C(NCCc1cccnc1)c1ccc(-c2ccccc2F)o1

row,IC50,Compound
1,2000 nM,Cn1ccnc1-c1nc(NCc2ccccc2Cl)cc(C2CC2)n1
2,320 nM,COc1ncc(-c2ccc3nccc(-c4ccncc4)c3c2)cc1NS(C)(=O)=O
3,7900 nM,COc1cc(OC)cc(C(NS(=O)(=O)c2ccc(Cl)c(C(F)(F)F)c2)c2nccn2C)c1 (stereo not drawn)
4,> 40000 nM (inactive),Cc1nc(C(=O)Nc2ccc3c(c2)OCO3)nn1-c1ccc(Cl)cc1
5,> 40000 nM (inactive),Cn1cncc1CN1CCC2(CC1)COC(Cc1ccccc1)C2 (stereo not drawn)
6,20000 nM,Cc1cc(C)c(C#N)c(SCC(=O)c2ccc3c(c2)OCO3)n1
7,400 nM,CCN(CC)S(=O)(=O)c1ccc(OC)c(NC(=O)c2ccc([N+](=O)[O-])s2)c1
8,200 nM,NC(=O)c1ccsc1NC(=O)c1ccc([N+](=O)[O-])s1
9,> 40000 nM (inactive),C=CCOCC1Cn2nc([N+](=O)[O-])nc2O1 (stereo not drawn)
10,5000 nM,Cc1ccc2ccc(C(Nc3ccccn3)c3cccnc3)c(O)c2n1 (stereo not drawn)
11,2500 nM,CCN(CC)c1nc(Nc2ccncc2)nc2ccccc12
12,130 nM,NC(=O)c1ncc(N[C@@H]2CCCNC2)nc1Nc1cccc(Cl)c1
13,630 nM,O=C(CC1(O)C(=O)N(Cc2cccs2)c2ccc(Br)cc21)c1cccnc1 (stereo not drawn)
14,> 40000 nM (inactive),O=S(=O)(c1ccccc1C(F)(F)F)N1CCN(Cc2ccc(-n3ccnc3)cc2)CC1
15,32000 nM,COc1cccc(C(=O)[C@H]2C[C@@H]2CN(Cc2cccnc2)Cc2cccnc2)c1
16,200 nM,Cc1cc(NC(=O)CC2CCCCC2)n(-c2nc3c(c(=O)[nH]2)CCC3)n1
17,6300 nM,O=C(CN(Cc1ccccn1)Cc1ccccn1)NCc1ccc2c(c1)OCO2
18,130 nM,CC(=O)Nc1cccc(Nc2ncnc3nc[nH]c23)c1
19,> 40000 nM (inactive),O=C(NC1C(=O)N(c2ccccc2)C1c1cccnc1)c1ccc(Cl)s1 (stereo not drawn)
20,320 nM,CCC(=O)Nc1ccccc1C(=O)Nc1ccccn1
21,25000 nM,CC(C)c1sc(Cl)nc1C(=O)NCCc1nc(C(=O)Nc2ccc3c(c2)OCO3)cs1
22,400 nM,O=C(NCCc1csc(-c2ccc(F)cc2)n1)c1ccco1

row,IC50,Compound
1,> 40000 nM (inactive),Cc1nn(C)c(Cl)c1CN(Cc1cccnc1)Cc1ccsc1
2,20000 nM,COCCn1c(-c2ccc3c(c2)OCO3)cnc1NCc1ccccc1OC
3,13000 nM,O=C(NCCc1ccccn1)C(c1cn[nH]c1)N1CCN(c2ccc(Cl)c(Cl)c2)CC1 (stereo not drawn)
4,16000 nM,COc1ccc(-c2cc(C)no2)cc1S(=O)(=O)Nc1ccc(F)c(Cl)c1
5,1000 nM,N#CN1CC[C@@H](NC(=O)Nc2ccccc2Oc2ccccc2)C1
6,400 nM,COc1cnc2ccc(=O)n(CCN3CCC(NC/C=C/c4cc(F)ccc4F)CC3)c2c1
7,200 nM,CC(=O)NCCNc1cc(-c2ccnc(Nc3cccc(Cl)c3)n2)ccn1
8,7900 nM,CCCn1c(NC(=O)CCn2cc(Br)cn2)nc2ccccc21
9,25000 nM,Cc1cc2cc(CNc3ccc4c(c3)OCO4)c(=O)n(CCO)c2cc1C
10,16000 nM,COc1cc(-c2nc(N3CCOCC3)sc2-c2ccnc(NC3CCOCC3)n2)ccc1Cl
11,790 nM,Cc1ccc(S(C)(=O)=O)cc1Nc1nccc(-c2sc(N)nc2-c2ccccc2)n1
12,16000 nM,CCOc1ccc(NC(=O)C=Cc2ccc(CC)o2)cc1
13,2000 nM,CN(C)c1ccc(-c2cc3nccnc3c(OC[C@H]3CCCNC3)n2)cn1
14,320 nM,COc1ccc2ncc(Cl)c(CCN3CC[C@@H](NCc4cc5c(cn4)OCS5)[C@H](O)C3)c2n1
15,630 nM,Nc1nonc1-c1nc2cncc(C(=O)N3CC[C@H](N)C3)c2n1CC1CC1
16,320 nM,O=C(NCC(c1cccs1)N1CCOCC1)c1ccc([N+](=O)[O-])o1 (stereo not drawn)
17,1000 nM,c1ccc2sc(Nc3nc4ncccc4[nH]3)nc2c1
18,13000 nM,O=C(c1cccc(Nc2ncc(-c3ccc4c(c3)OCO4)cn2)c1)N1CCSC1
19,> 40000 nM (inactive),Cc1nc(C(=O)Nc2ccc3c(c2)OCO3)nn1-c1ccc(F)cc1
20,20000 nM,COc1cccc(CCNC(=O)C(c2cn[nH]c2)N2CCN(c3ccc(Cl)cc3)CC2)c1 (stereo not drawn)
21,3200 nM,COc1ccc(S(=O)(=O)NCc2ccc(-c3ccc(CN(C)CCO)cc3)cc2)cc1
22,4000 nM,COc1ccc(Nc2nc(-c3ccccn3)cc(N3CCCC(O)C3)n2)cc1 (stereo not drawn)

row,IC50,Compound
1,1600 nM,Cc1ccc(CNC2CCN(C[C@@H]3Cn4c(=O)ccc5ccc(=O)n3c54)CC2)cc1F
2,200 nM,COc1ccc(NC(=O)c2ccc(NC(=O)CN(c3ccccc3C)S(C)(=O)=O)cc2)cc1
3,13000 nM,Cc1cc(Br)cc(C(=O)c2c(C(C)C)c(=O)[nH]c(=O)n2Cc2ccnc(N)c2)c1
4,630 nM,O=C(CC1(O)C(=O)N(Cc2ccccc2)c2ccc(Br)cc21)c1cccnc1 (stereo not drawn)
5,4000 nM,Cc1ccc2c(c1)SC(C(=O)Nc1n[nH]c(-c3ccccn3)n1)C2 (stereo not drawn)
6,400 nM,CN(C)S(=O)(=O)c1ccc(-c2cnc(N)c(-c3nc4ccc(F)cc4[nH]3)c2)cc1
7,32000 nM,O=C(NCCc1ccccc1Cl)c1cccn1-c1cccnc1
8,400 nM,OC[C@@H](Nc1nccc(-c2c(-c3ccc(F)cc3)ncn2C2CCNCC2)n1)c1ccccc1
9,10000 nM,Clc1cc(Br)ccc1OCCCCn1ccnc1
10,630 nM,Cc1nc(-c2nc(NCc3ccc(Cl)cc3)c3cccnc3c2O)n[nH]1
11,63 nM,Cc1ccc(NC(=O)c2ccnc(N3CCCC3)c2)cc1-c1ccsc1C(N)=O
12,> 40000 nM (inactive),O=C(c1ccc(O)c(Cl)c1)N1CCN(c2cnccn2)CC1
13,320 nM,O=[N+]([O-])c1ccc(-c2nnn(-c3ccc(Cl)cc3)n2)o1
14,> 40000 nM (inactive),CC(C)(C)C(Cn1ccnc1)NC(=O)c1ccc2nc(C3CC3)oc2c1 (stereo not drawn)
15,400 nM,CCc1cccc(CC)c1-n1c(SCC(=O)NC(=O)NCc2ccco2)nnc1-c1cccnc1
16,6300 nM,CC1CN(S(=O)(=O)c2ccc(NC(=O)c3cc(C4CC4)nc4c3cnn4C(C)C)cc2)CC(C)O1 (stereo not drawn)
17,250 nM,NS(=O)(=O)c1ccc(CNC(=O)c2ccc([N+](=O)[O-])s2)cc1
18,5000 nM,CC(C)Nc1nc(Cl)nc2ccccc12
19,400 nM,NCC(Cc1ccccc1)NC(=O)c1cnc(-c2c[nH]c3ncccc23)s1 (stereo not drawn)
20,> 40000 nM (inactive),Cc1cccc(NS(=O)(=O)c2cnc3sc(C)cn3c2=O)c1
21,7900 nM,Fc1ccc(OC2CC(NCc3cccc4cn[nH]c34)C2)cc1C(F)(F)F (stereo not drawn)
22,25000 nM,O=S(=O)(NCC(c1cccnc1)N1CCN(c2ccccc2F)CC1)c1ccc(F)cc1 (stereo not drawn)

row,IC50,Compound
1,10000 nM,Cc1cccnc1CN1CCN(CCCOc2ccc(-c3ccc(C(N)=O)cc3)cc2)CC1
2,200 nM,COc1ccc2nccc([C@H](O)CN3CC[C@H](NC(=O)c4ccc(Br)cc4)[C@@H](O)C3)c2n1
3,7900 nM,Cc1ccc(NC(=O)c2ccc(Cl)c(NC(=O)c3ccc([N+](=O)[O-])cc3)c2)cc1
4,630 nM,CC(=O)Nc1ccc(-c2ccnc(Nc3cccc(C#N)c3)n2)cc1
5,10000 nM,CC(CCc1ccccc1)NC(=O)CN(Cc1ccccn1)Cc1ccccn1 (stereo not drawn)
6,13000 nM,CN1CCN(c2nc(-c3ccc(Cl)cc3)c3c(N)n(C)nc3n2)CC1
7,2500 nM,N#Cc1cc([N+](=O)[O-])ccc1NC1CCCCCC1
8,> 40000 nM (inactive),CCOc1ccccc1C(=O)Nc1nnc(-c2ccc3c(c2)OCO3)s1
9,320 nM,CCCCCNC(=O)c1c[nH]c2ccc(S(=O)(=O)N(C)c3ccc(OCC)cc3)cc2c1=O
10,2000 nM,CCCn1c(NC(=O)Cc2ccc(Cl)cc2)nc2ccccc21
11,25000 nM,Cn1cc(CN2CCN(c3ccc4c(c3)CCN(C(=O)[C@H]3C[C@@H]3c3ccccc3)CC4)CC2)cn1
12,630 nM,COc1ccc(OC)c(S(=O)(=O)N(Cc2c(F)cccc2F)[C@@H]2CCN(C#N)C2)c1
13,10 nM,O=c1cc(NCCCNC2CCOc3c(I)cc(Cl)cc32)[nH]c2ccccc12 (stereo not drawn)
14,> 40000 nM (inactive),CN(Cc1ccccc1)Cc1nnnn1C1CCN(Cc2ccc(-n3ccnc3)cc2)CC1
15,1300 nM,CCOc1ccc2nc(NC(=O)c3ccc([N+](=O)[O-])s3)sc2c1
16,630 nM,Cc1cc2nc(CN(C)Cc3ncccc3C)[nH]c2cc1C
17,6300 nM,CCOc1ccc(Nc2ccc(S(=O)(=O)N3CCN(C)CC3)cc2[N+](=O)[O-])cc1OCC
18,25000 nM,CN(C)Cc1ccc(-c2ccc(S(=O)(=O)NCC3CCCO3)c(F)c2)cc1 (stereo not drawn)
19,40000 nM,N#Cc1cc(N2CCCC2=O)ccc1Sc1ccccc1CO

row,Compound,IC50
1,N#Cc1cccc(CN2CCC(N(Cc3cccnc3)C(=O)c3cc(F)c(F)cc3F)CC2)c1,> 40000 nM (inactive)
